A word on the IC50: it is the midpoint of a concentration-inhibition curve. A low value points to greater potency.

For assay [1], the target named is T1, HRV-C RdRp (rhinovirus C15, UniProt E5D8F2).
T1 sequence (E5D8F2 1694-2153): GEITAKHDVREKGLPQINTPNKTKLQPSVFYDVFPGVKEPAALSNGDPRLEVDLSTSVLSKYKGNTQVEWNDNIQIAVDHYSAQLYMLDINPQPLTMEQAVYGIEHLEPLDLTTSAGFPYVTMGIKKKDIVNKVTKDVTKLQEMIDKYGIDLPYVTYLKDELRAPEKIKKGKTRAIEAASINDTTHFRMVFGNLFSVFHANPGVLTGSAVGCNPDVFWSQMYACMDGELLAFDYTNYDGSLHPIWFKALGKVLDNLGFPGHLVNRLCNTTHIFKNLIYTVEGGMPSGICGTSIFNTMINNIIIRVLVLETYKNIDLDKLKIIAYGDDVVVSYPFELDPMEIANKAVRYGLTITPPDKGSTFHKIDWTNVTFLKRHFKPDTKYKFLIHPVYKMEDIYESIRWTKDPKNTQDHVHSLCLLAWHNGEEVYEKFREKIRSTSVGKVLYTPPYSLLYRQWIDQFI
In words: primer extension RNA synthesis, denaturing PAGE. The assay is classed as biochemical.

Assay [2] addresses T2, Hs CMPK2 (Homo sapiens, UniProt Q5EBM0).
T2 sequence (Q5EBM0 99-449): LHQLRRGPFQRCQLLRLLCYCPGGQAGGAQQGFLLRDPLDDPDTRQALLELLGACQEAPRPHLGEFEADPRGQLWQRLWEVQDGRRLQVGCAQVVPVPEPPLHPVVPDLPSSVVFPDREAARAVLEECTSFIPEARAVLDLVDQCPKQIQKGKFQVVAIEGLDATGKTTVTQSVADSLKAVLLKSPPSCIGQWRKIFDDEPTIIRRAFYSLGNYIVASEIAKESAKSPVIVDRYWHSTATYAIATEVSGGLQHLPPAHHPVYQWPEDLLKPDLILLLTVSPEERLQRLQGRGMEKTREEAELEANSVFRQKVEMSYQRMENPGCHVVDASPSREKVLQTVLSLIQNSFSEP
In words: kinase assay, CTP formation. The assay is classed as biochemical. Particulars: 1 mM CDP; phosphate donor ATP or GTP; 5 μM enzyme.

Assay [3] addresses T2, Hs CMPK2. In words: kinase assay, UTP formation. The assay is classed as biochemical. To be noted: 1 mM UDP; phosphate donor ATP or GTP; 5 μM enzyme.
Assay [4] deals with PV RdRp (Human poliovirus 1 Mahoney, UniProt P03300). The assay is classed as biochemical.
Assay [5] has as its target T3, Hs viperin (Homo sapiens, UniProt Q8WXG1).
T3 sequence (Q8WXG1 1-361): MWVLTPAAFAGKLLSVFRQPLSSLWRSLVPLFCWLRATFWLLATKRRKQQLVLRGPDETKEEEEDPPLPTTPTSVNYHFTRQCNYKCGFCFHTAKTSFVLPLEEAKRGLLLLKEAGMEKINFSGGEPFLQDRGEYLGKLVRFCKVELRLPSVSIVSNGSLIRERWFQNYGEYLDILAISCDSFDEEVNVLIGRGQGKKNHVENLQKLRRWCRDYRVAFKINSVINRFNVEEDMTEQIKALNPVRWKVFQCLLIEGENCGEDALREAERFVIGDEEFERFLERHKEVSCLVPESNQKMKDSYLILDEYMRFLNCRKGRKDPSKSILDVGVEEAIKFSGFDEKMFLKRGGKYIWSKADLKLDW
Put plainly: LC/MS of extracts of transfected HEK293T cells. The assay is classed as cell-based. Particulars: endogenous CTP and SAM; vector control.

The target of assay [6] is DV RdRp (Dengue virus 2 Peru/IQT2913/1996, UniProt Q9WDA6). In words: primer extension RNA synthesis, denaturing PAGE. Particulars: 0.1 μM CTP; competes with CTP; incorporated as chain terminator. The assay is classed as biochemical.
Assay [7] has as its target WNV RdRp (West Nile virus strain NY-99, UniProt Q9Q6P4). In words: primer extension RNA synthesis, denaturing PAGE. The assay is classed as biochemical.

Sequence of DV RdRp (Q9WDA6 2492-3391): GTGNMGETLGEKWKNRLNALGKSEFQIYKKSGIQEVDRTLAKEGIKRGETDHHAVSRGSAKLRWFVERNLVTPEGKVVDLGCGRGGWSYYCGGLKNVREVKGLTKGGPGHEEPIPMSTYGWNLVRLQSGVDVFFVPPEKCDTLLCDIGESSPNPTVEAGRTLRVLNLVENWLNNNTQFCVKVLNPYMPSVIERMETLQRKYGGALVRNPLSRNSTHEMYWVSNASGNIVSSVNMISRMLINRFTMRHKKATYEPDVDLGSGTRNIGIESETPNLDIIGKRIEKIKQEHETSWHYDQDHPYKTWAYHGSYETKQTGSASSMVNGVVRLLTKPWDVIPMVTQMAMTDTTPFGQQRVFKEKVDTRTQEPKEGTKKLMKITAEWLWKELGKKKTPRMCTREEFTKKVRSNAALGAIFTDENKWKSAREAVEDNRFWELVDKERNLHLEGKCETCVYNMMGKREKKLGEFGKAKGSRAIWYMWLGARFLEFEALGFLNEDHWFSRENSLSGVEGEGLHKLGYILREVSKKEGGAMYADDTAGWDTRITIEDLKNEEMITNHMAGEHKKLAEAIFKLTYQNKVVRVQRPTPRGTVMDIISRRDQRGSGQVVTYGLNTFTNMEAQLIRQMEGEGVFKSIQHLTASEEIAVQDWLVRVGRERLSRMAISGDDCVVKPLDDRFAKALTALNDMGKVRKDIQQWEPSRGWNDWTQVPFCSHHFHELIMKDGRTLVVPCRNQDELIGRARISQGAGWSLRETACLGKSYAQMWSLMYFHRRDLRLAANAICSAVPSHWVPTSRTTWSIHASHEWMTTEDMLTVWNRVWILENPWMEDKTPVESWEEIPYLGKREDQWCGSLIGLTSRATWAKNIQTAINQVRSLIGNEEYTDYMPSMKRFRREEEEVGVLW
Sequence of WNV RdRp (Q9Q6P4 2529-3433): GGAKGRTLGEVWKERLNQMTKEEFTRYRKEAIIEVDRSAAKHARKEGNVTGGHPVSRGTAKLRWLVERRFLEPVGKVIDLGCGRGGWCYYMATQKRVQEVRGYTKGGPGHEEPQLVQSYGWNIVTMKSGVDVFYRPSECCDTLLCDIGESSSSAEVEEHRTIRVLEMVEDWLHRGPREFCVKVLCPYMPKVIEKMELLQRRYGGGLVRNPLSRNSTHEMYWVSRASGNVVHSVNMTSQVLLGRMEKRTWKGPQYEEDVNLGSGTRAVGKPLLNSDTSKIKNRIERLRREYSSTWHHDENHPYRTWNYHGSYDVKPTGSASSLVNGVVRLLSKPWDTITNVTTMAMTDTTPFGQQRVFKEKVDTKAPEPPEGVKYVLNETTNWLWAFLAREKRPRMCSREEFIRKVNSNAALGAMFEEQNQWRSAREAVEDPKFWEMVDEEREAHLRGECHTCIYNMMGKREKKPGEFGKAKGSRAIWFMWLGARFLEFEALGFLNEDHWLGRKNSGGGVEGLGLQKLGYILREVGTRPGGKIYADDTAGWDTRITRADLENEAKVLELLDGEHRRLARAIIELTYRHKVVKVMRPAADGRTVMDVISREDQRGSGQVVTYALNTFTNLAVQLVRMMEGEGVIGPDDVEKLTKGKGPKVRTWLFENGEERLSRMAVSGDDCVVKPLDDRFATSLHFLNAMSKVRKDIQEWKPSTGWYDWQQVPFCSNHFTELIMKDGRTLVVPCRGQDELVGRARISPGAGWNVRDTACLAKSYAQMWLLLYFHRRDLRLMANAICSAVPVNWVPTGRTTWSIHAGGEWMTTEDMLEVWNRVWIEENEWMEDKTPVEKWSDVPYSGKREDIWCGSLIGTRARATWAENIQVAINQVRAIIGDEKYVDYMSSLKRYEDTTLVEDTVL
Sequence of PV RdRp (P03300 1749-2209 limits assumed): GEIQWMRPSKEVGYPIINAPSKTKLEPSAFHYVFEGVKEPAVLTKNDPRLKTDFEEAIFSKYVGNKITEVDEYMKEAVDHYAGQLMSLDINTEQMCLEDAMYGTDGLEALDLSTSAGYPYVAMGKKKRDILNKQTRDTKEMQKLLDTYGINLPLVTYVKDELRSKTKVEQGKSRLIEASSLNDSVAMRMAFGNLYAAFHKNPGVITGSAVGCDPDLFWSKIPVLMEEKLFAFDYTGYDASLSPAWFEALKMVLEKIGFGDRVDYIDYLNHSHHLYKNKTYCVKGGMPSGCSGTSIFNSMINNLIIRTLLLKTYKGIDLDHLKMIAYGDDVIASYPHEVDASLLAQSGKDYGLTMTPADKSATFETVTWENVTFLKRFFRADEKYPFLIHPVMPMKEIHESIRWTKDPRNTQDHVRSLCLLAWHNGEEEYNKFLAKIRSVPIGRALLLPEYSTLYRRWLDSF

On to `Nc1ccn([C@@H]2O[C@H](COP(=O)(O)OP(=O)(O)OP(=O)(O)O)C[C@H]2O)c(=O)n1` [3′-dCTP], for which, in assay [1], the midpoint of inhibition, the IC50, lay at 5 ± 1 µM.

Turning to `Nc1ccn([C@@H]2O[C@H](COP(=O)(O)OP(=O)(O)O)[C@@H](O)[C@H]2O)c(=O)n1` [CDP], the “kinase assay, CTP formation” value in assay [2] was “Hs CMPK2 exhibits significant preference for CDP and UDP as substrates”.

Take `O=c1ccn([C@@H]2O[C@H](COP(=O)(O)OP(=O)(O)O)[C@@H](O)[C@H]2O)c(=O)[nH]1` [UDP]: the “kinase assay, UTP formation” value in assay [3] was “Hs CMPK2 exhibits significant preference for CDP and UDP as substrates”.

As for `Nc1ccn([C@@H]2OC(COP(=O)(O)OP(=O)(O)OP(=O)(O)O)=C[C@H]2O)c(=O)n1` [ddhCTP], the “primer extension RNA synthesis, denaturing PAGE” value in assay [4] is “both HRV-C and PV RdRp were poorly inhibited by ddhCTP”. Besides, in assay [5], the “LC/MS of extracts of transfected HEK293T cells” value is “HEK293T cells transfected with the Hs viperin plasmid exhibited considerable intracellular ddhCTP levels”. Besides, the IC50 turned out to be 60 ± 10 µM in assay [6], 20 ± 10 µM in assay [7] and 900 ± 300 µM in assay [1].

The record behind these values is PMC6026066 (Nature, 2018).
